This is an account of results in paper PMC11943950, “Characterization of Flexusin A, a Novel Circular Bacteriocin Produced by Marine Bacterium Bacillus flexus R29-2” (Marine Drugs, 2025).

Values after ≈ are worked out from the molar mass of the structure shown. Where two headings read alike, the source gives them in different places.

Data set [1] has as its system E. faecium CICC 10004. Description: MIC by broth microdilution. The following applies: Enterococcus faecium, CICC10004, 96-well, approximately 1 × 10^6 CFU/mL, 37 °C, 24 h, no visible growth, triplicate. The data set is classed as cell-based. The method, then: (§1) An array of indicator strains (S. aureus ATCC 6538, E. faecalis CICC 21605, E. faecium CICC 10004 and L. monocytogenes ATCC 19115) were used to determine the MIC of flexusin A by the methods, as reported. […] The purified powder of flexusin A was reconstituted at 256 μg/mL to serve as the stock solution. It was then used for the antibacterial activity assay over a range of 256, 128, 64, 32, 16, 8, 4, 2, 1, 0.5, 0.25, and 0.125 μg/mL. The protein concentration of the flexusin A stock solution was determined by the BCA method (BCA Protein Assay Kit, Sangon Biotech)”. Water was used as a negative control, whereas ampicillin (Solarbio, Beijing, China) was used as positive control. All assays were performed in triplicate. MIC was defined as the lowest concentration of flexusin A that inhibited indicator growth, as no visible microbial growth was observed.
For orientation: Dilution methods test growth across graded concentrations, often in twofold steps.

The test system of data set [2] is L. monocytogenes ATCC 19115. Put plainly: microbe, parasite or virus in culture. The data set is classed as cell-based, Listeria monocytogenes. The method, then:
as §1

For data set [3], the system named is S. aureus ATCC 6538. Description: microbe, parasite or virus in culture. Type of data set: cell-based, Staphylococcus aureus. As to the method:
as §1

The test system of data set [4] is E. faecalis CICC 21605. Put plainly: microbe, parasite or virus in culture. The data set is classed as cell-based, Enterococcus faecalis. As to the method:
as §1

The conditions of data set [5]: HPLC purified sample, neutral water; qualitative. As to the method:
(§2) The HPLC purified bacteriocin samples were made readily soluble in neutral water, and the stock solution was then tested for sensitivity to heat, pH changes, and degradative enzymes. The qualitative spot-on-lawn bioassay was used to monitor changes in antimicrobial potency after treatments mentioned. For thermal stability testing, aliquots of the HPLC-purified peptide samples were exposed to 30 °C, 40 °C, 50 °C, 60 °C, 70 °C, 80 °C, 90 °C, and 100 °C for 30 min, respectively. For the pH stability test, aliquots of the stock solutions were adjusted to pH 2.0, 3.0, 4.0, 5.0, 6.0, 7.0, 8.0, and 9.0, followed by incubation at 25 °C for 2 h.

The target of data set [6] is pepsin (Sus scrofa, UniProt P00791). The following applies: pepsin 1 mg/mL, 25 mM phosphate buffer pH 2.0, 37 °C for 4 h; residual antimicrobial activity, spot-on-lawn bioassay. The method, then:
as §2
(§3) Sensitivity to various degradative enzymes was determined using trypsin, papain, pepsin, chymotrypsin, and protease K at a final concentration of 1 mg/mL, respectively. All enzymes were purchased from Sigma, and their solutions were prepared in 25 mM phosphate buffer, pH 7.0 (pepsin, pH = 2.0). Solutions of the antimicrobial peptide were prepared in the same sterile buffer. After mixing the enzymatic reaction solutions were incubated at 37 °C for 4 h before residual antimicrobial activity measurement.

Data set [7] has as its target protease K (Parengyodontium album, UniProt P06873). The following applies: protease K 1 mg/mL, 25 mM phosphate buffer pH 7.0, 37 °C for 4 h; residual antimicrobial activity, spot-on-lawn bioassay. As to the method:
as §2, §3

Data set [8] concerns trypsin. Particulars: trypsin 1 mg/mL, 25 mM phosphate buffer pH 7.0, 37 °C for 4 h; residual antimicrobial activity, spot-on-lawn bioassay. As to the method:
as §2, §3

Data set [9] has as its target chymotrypsin (Bos taurus, UniProt P00766). Particulars: chymotrypsin 1 mg/mL, 25 mM phosphate buffer pH 7.0, 37 °C for 4 h; residual antimicrobial activity, spot-on-lawn bioassay. The method, then: as §2, §3
The conditions of data set [10]: treated for 30 min from 20 to 100 °C (method: 30-100 °C); read-out qualitative spot-on-lawn bioassay.
For data set [11] the following is noted: pH range from 2.0 to 10.0 (method: pH 2.0-9.0), 25 °C for 2 h; read-out qualitative spot-on-lawn bioassay.

Sequence of pepsin (P00791 60-385): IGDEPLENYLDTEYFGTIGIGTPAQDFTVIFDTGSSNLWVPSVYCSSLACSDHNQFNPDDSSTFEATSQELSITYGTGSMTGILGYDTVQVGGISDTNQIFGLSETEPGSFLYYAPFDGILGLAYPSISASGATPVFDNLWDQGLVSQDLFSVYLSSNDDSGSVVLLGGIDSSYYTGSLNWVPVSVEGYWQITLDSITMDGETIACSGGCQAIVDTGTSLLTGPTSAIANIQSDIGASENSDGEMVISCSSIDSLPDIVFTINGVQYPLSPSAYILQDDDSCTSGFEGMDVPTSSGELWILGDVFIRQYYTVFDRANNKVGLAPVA
Sequence of protease K (P06873 106-384): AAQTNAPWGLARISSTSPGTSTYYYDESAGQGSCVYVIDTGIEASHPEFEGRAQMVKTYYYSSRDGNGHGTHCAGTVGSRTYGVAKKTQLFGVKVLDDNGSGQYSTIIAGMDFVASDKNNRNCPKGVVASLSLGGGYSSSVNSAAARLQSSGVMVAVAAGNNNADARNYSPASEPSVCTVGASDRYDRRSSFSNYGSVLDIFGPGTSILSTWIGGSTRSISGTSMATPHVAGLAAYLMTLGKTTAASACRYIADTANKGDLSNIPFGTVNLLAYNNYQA

In the case of `CC1(C)S[C@@H]2[C@H](NC(=O)[C@H](N)c3ccccc3)C(=O)N2[C@H]1C(=O)O` [Amp, ampicillin, reference compound], the MIC was 1.6 µg/mL (≈ 4.58 µM) in data set [1]; 0.0625 µg/mL (≈ 0.179 µM) in data set [2] (Listeria monocytogenes, ATCC19115, L. monocytogenes ATCC 19115, broth microdilution, 96-well, approximately 1 × 10^6 CFU/mL, 37 °C, 24 h, no visible growth, triplicate, read-out: MIC); 0.4 µg/mL (≈ 1.14 µM) in data set [3] (Staphylococcus aureus, ATCC6538, S. aureus ATCC 6538, broth microdilution, 96-well, approximately 1 × 10^6 CFU/mL, 37 °C, 24 h, no visible growth, triplicate, read-out: MIC); above 51.2 µg/mL in data set [4] (Enterococcus faecalis, CICC21605, E. faecalis CICC 21605, broth microdilution, 96-well, approximately 1 × 10^6 CFU/mL, 37 °C, 24 h, no visible growth, triplicate, read-out: MIC).

For the compound “cyclo(AGALGISEYWANVIVTAIEAGSTVLALISMFASFGLTSALILTAKSLLKKGAKKTAVAYI) [flexusin A]”, in data set [5], the Solubility in water entry is listed as “water soluble”. The “Resistance to pepsin (remaining activity)” value in [6] is reported as “tolerant”. For the same compound, in data set [7], the “Resistance to protease K (remaining activity)” value was “sensitive”. For the same compound, in data set [8], the “Resistance to trypsin (remaining activity)” value is on record as “tolerant”. Also, the “Resistance to chymotrypsin (remaining activity)” value in data set [9] is on record as “sensitive”. Besides, in data set [10], the “Thermal stability (remaining activity)” value is on record as “decent thermal stability”. The “pH stability (remaining activity)” value in data set [11] is given as “stable”. The MIC in data set [2] (ATCC 19115, 24 h) is recorded as 2 µg/mL; in data set [3] (ATCC 6538, 24 h), 1 µg/mL; in data set [4] (CICC 21605, 24 h) it was 16 µg/mL.
